± gives the standard deviation of the averaged measurements.
Tests used:
DOXORUBICIN = compound: COc1cccc2c1C(=O)c1c(O)c3c(c(O)c1C2=O)C[C@@](O)(C(=O)CO)C[C@@H]3O[C@H]1C[C@H](N)[C@H](O)[C@H](C)O1 [DOXORUBICIN]; experiment: surviving fraction relative to DMSO-only wells; higher = less growth inhibition; conditions: exposure time: 5 days
How it was run: (§1)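 At 250–500 cells per well in 384-well plates, log-phase tumour cell lines were seeded and, 24 hours on, exposed continuously for five days to inhibitors at 0.5, 1, 5, 10, 50, 100, 500 and 1000 nM. Viability readout was CellTiter-Glo luminescence, reported as surviving fraction normalised to the median of DMSO-only wells.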

[1] = compound: CCN(CC)CCCCNc1ncc2cc(-c3cc(OC)cc(OC)c3)c(NC(=O)NC(C)(C)C)nc2n1; experiment: as above; conditions: exposure time: 5 days
How it was run: as §1

Test System OS25HAL BONE has a surviving fraction (DOXORUBICIN; 0.5 nM) of 0.982 ± 0.016, a surviving fraction (DOXORUBICIN; 1 nM) of 0.974 ± 0.013 and a surviving fraction (DOXORUBICIN; 5 nM) of 0.97033 ± 0.00058. It also gave a surviving fraction (DOXORUBICIN; 10 nM) of 0.965 ± 0.0076, a surviving fraction (DOXORUBICIN; 50 nM) of 0.258 ± 0.033 and a surviving fraction (DOXORUBICIN; 100 nM) of 0.151 ± 0.01. The surviving fraction (DOXORUBICIN; 500 nM) was 0.0337 ± 0.0047, the surviving fraction (DOXORUBICIN; 1000 nM) was 0.038 ± 0.003 and the surviving fraction ([1]; 0.5 nM) was 0.969 ± 0.0072. For the same test system, the surviving fraction ([1]; 1 nM) was 0.983 ± 0.023, the surviving fraction ([1]; 5 nM) was 0.973 ± 0.0036 and the surviving fraction ([1]; 10 nM) was 1 ± 0.025. It also gave a surviving fraction ([1]; 50 nM) of 1 ± 0.0091, a surviving fraction ([1]; 100 nM) of 1 ± 0.013 and a surviving fraction ([1]; 500 nM) of 0.979 ± 0.0085. The surviving fraction ([1]; 1000 nM) was 1.03 ± 0.03.

With OSHN BONE the surviving fraction (DOXORUBICIN; 0.5 nM) was 1.04 ± 0.039, the surviving fraction (DOXORUBICIN; 1 nM) was 1.05 ± 0.059 and the surviving fraction (DOXORUBICIN; 5 nM) was 1.05 ± 0.031. The surviving fraction (DOXORUBICIN; 10 nM) was 1.03 ± 0.028, the surviving fraction (DOXORUBICIN; 50 nM) was 0.299 ± 0.068 and the surviving fraction (DOXORUBICIN; 100 nM) was 0.286 ± 0.062. It also gave a surviving fraction (DOXORUBICIN; 500 nM) of 0.0707 ± 0.0021, a surviving fraction (DOXORUBICIN; 1000 nM) of 0.0503 ± 0.00058 and a surviving fraction ([1]; 0.5 nM) of 1 ± 0.016. The surviving fraction ([1]; 1 nM) was 1.01 ± 0.017, the surviving fraction ([1]; 5 nM) was 1.01 ± 0.024 and the surviving fraction ([1]; 10 nM) was 1.03 ± 0.033. The surviving fraction ([1]; 50 nM) was 0.993 ± 0.023, the surviving fraction ([1]; 100 nM) was 1.01 ± 0.033 and the surviving fraction ([1]; 500 nM) was 1.02 ± 0.035. It also gave a surviving fraction ([1]; 1000 nM) of 1.04 ± 0.042.

With PCI30 HEADNECK the surviving fraction (DOXORUBICIN; 0.5 nM) was 0.979 ± 0.094, the surviving fraction (DOXORUBICIN; 1 nM) was 0.929 ± 0.01 and the surviving fraction (DOXORUBICIN; 5 nM) was 0.92 ± 0.13. For the same test system, the surviving fraction (DOXORUBICIN; 10 nM) was 0.637 ± 0.061, the surviving fraction (DOXORUBICIN; 50 nM) was 0.551 ± 0.022 and the surviving fraction (DOXORUBICIN; 100 nM) was 0.587 ± 0.024. It also gave a surviving fraction (DOXORUBICIN; 500 nM) of 0.079 ± 0.023, a surviving fraction (DOXORUBICIN; 1000 nM) of 0.03 ± 0.0027 and a surviving fraction ([1]; 0.5 nM) of 0.906 ± 0.074. It also gave a surviving fraction ([1]; 1 nM) of 0.969 ± 0.09, a surviving fraction ([1]; 5 nM) of 0.984 ± 0.11 and a surviving fraction ([1]; 10 nM) of 1.08 ± 0.058. The surviving fraction ([1]; 50 nM) was 1.04 ± 0.054, the surviving fraction ([1]; 100 nM) was 1.1 ± 0.1 and the surviving fraction ([1]; 500 nM) was 0.912 ± 0.011. The surviving fraction ([1]; 1000 nM) was 0.995 ± 0.093.

RDES SOFT TISSUE was tested, and the surviving fraction (DOXORUBICIN; 0.5 nM) was 1.15 ± 0.035, the surviving fraction (DOXORUBICIN; 1 nM) was 1.15 ± 0.061 and the surviving fraction (DOXORUBICIN; 5 nM) was 1.04 ± 0.05. For the same test system, the surviving fraction (DOXORUBICIN; 10 nM) was 1.25 ± 0.14, the surviving fraction (DOXORUBICIN; 50 nM) was 0.16 ± 0.021 and the surviving fraction (DOXORUBICIN; 100 nM) was 0.0457 ± 0.004. It also gave a surviving fraction (DOXORUBICIN; 500 nM) of 0.087 ± 0.0098, a surviving fraction (DOXORUBICIN; 1000 nM) of 0.0413 ± 0.0031 and a surviving fraction ([1]; 0.5 nM) of 1.2 ± 0.034. The surviving fraction ([1]; 1 nM) was 1.35 ± 0.094, the surviving fraction ([1]; 5 nM) was 1.25 ± 0.088 and the surviving fraction ([1]; 10 nM) was 1.26 ± 0.11. For the same test system, the surviving fraction ([1]; 50 nM) was 1.13 ± 0.032, the surviving fraction ([1]; 100 nM) was 1.25 ± 0.16 and the surviving fraction ([1]; 500 nM) was 1.08 ± 0.29. It also gave a surviving fraction ([1]; 1000 nM) of 1.06 ± 0.1.

S68 BREAST gave a surviving fraction (DOXORUBICIN; 0.5 nM) of 0.792 ± 0.077, a surviving fraction (DOXORUBICIN; 1 nM) of 0.87 ± 0.13 and a surviving fraction (DOXORUBICIN; 5 nM) of 0.693 ± 0.16. The surviving fraction (DOXORUBICIN; 10 nM) was 0.424 ± 0.016, the surviving fraction (DOXORUBICIN; 50 nM) was 0.205 ± 0.013 and the surviving fraction (DOXORUBICIN; 100 nM) was 0.19 ± 0.015. It also gave a surviving fraction (DOXORUBICIN; 500 nM) of 0.037 ± 0.0046, a surviving fraction (DOXORUBICIN; 1000 nM) of 0.0317 ± 0.0011 and a surviving fraction ([1]; 0.5 nM) of 0.948 ± 0.29. The surviving fraction ([1]; 1 nM) was 1.01 ± 0.22, the surviving fraction ([1]; 5 nM) was 1.285 ± 0.0036 and the surviving fraction ([1]; 10 nM) was 0.836 ± 0.1. It also gave a surviving fraction ([1]; 50 nM) of 1.02 ± 0.06, a surviving fraction ([1]; 100 nM) of 1.11 ± 0.3 and a surviving fraction ([1]; 500 nM) of 0.864 ± 0.18. The surviving fraction ([1]; 1000 nM) was 0.81 ± 0.22.

For SAOS2 BONE, the surviving fraction (DOXORUBICIN; 0.5 nM) was 1.13 ± 0.038, the surviving fraction (DOXORUBICIN; 1 nM) was 1.1 ± 0.054 and the surviving fraction (DOXORUBICIN; 5 nM) was 1.09 ± 0.043. It also gave a surviving fraction (DOXORUBICIN; 10 nM) of 0.914 ± 0.055, a surviving fraction (DOXORUBICIN; 50 nM) of 0.277 ± 0.0081 and a surviving fraction (DOXORUBICIN; 100 nM) of 0.111 ± 0.0087. For the same test system, the surviving fraction (DOXORUBICIN; 500 nM) was 0.036, the surviving fraction (DOXORUBICIN; 1000 nM) was 0.0367 ± 0.0029 and the surviving fraction ([1]; 0.5 nM) was 1.09 ± 0.035. For the same test system, the surviving fraction ([1]; 1 nM) was 1.195 ± 0.011, the surviving fraction ([1]; 5 nM) was 1.2 ± 0.077 and the surviving fraction ([1]; 10 nM) was 1.21 ± 0.042. For the same test system, the surviving fraction ([1]; 50 nM) was 1.23 ± 0.043, the surviving fraction ([1]; 100 nM) was 1.19 ± 0.037 and the surviving fraction ([1]; 500 nM) was 0.995 ± 0.051. It also gave a surviving fraction ([1]; 1000 nM) of 0.906 ± 0.054.

SCC003 HEADNECK gave a surviving fraction (DOXORUBICIN; 0.5 nM) of 0.959 ± 0.12, a surviving fraction (DOXORUBICIN; 1 nM) of 1.04 ± 0.12 and a surviving fraction (DOXORUBICIN; 5 nM) of 1.02 ± 0.1. For the same test system, the surviving fraction (DOXORUBICIN; 10 nM) was 0.855 ± 0.098, the surviving fraction (DOXORUBICIN; 50 nM) was 0.396 ± 0.046 and the surviving fraction (DOXORUBICIN; 100 nM) was 0.431 ± 0.065. For the same test system, the surviving fraction (DOXORUBICIN; 500 nM) was 0.11 ± 0.025, the surviving fraction (DOXORUBICIN; 1000 nM) was 0.0417 ± 0.0086 and the surviving fraction ([1]; 0.5 nM) was 0.927 ± 0.046. The surviving fraction ([1]; 1 nM) was 1.02 ± 0.055, the surviving fraction ([1]; 5 nM) was 1.02 ± 0.092 and the surviving fraction ([1]; 10 nM) was 1.01 ± 0.086. For the same test system, the surviving fraction ([1]; 50 nM) was 0.981 ± 0.037, the surviving fraction ([1]; 100 nM) was 1.11 ± 0.091 and the surviving fraction ([1]; 500 nM) was 1.09 ± 0.13. It also gave a surviving fraction ([1]; 1000 nM) of 0.988 ± 0.097.

SCC36 HEADNECK gave a surviving fraction (DOXORUBICIN; 0.5 nM) of 0.694 ± 0.073, a surviving fraction (DOXORUBICIN; 1 nM) of 1.13 ± 0.046 and a surviving fraction (DOXORUBICIN; 5 nM) of 0.903 ± 0.001. For the same test system, the surviving fraction (DOXORUBICIN; 10 nM) was 0.795 ± 0.087, the surviving fraction (DOXORUBICIN; 50 nM) was 0.426 ± 0.024 and the surviving fraction (DOXORUBICIN; 100 nM) was 0.5 ± 0.069. For the same test system, the surviving fraction (DOXORUBICIN; 500 nM) was 0.035 ± 0.0027, the surviving fraction (DOXORUBICIN; 1000 nM) was 0.034 ± 0.002 and the surviving fraction ([1]; 0.5 nM) was 1.1 ± 0.082. For the same test system, the surviving fraction ([1]; 1 nM) was 1.03 ± 0.12, the surviving fraction ([1]; 5 nM) was 1.1 ± 0.15 and the surviving fraction ([1]; 10 nM) was 1.19 ± 0.028. It also gave a surviving fraction ([1]; 50 nM) of 0.978 ± 0.086, a surviving fraction ([1]; 100 nM) of 1.04 ± 0.043 and a surviving fraction ([1]; 500 nM) of 0.83 ± 0.039. It also gave a surviving fraction ([1]; 1000 nM) of 0.692 ± 0.082.

With SCC47 HEADNECK the surviving fraction (DOXORUBICIN; 0.5 nM) was 1.021 ± 0.0081, the surviving fraction (DOXORUBICIN; 1 nM) was 1.03 ± 0.11 and the surviving fraction (DOXORUBICIN; 5 nM) was 1.09 ± 0.09. For the same test system, the surviving fraction (DOXORUBICIN; 10 nM) was 0.966 ± 0.051, the surviving fraction (DOXORUBICIN; 50 nM) was 0.573 ± 0.027 and the surviving fraction (DOXORUBICIN; 100 nM) was 0.597 ± 0.039. It also gave a surviving fraction (DOXORUBICIN; 500 nM) of 0.09 ± 0.0027, a surviving fraction (DOXORUBICIN; 1000 nM) of 0.0307 ± 0.0015 and a surviving fraction ([1]; 0.5 nM) of 0.979 ± 0.033. The surviving fraction ([1]; 1 nM) was 0.993 ± 0.082, the surviving fraction ([1]; 5 nM) was 0.996 ± 0.05 and the surviving fraction ([1]; 10 nM) was 1.07 ± 0.047. For the same test system, the surviving fraction ([1]; 50 nM) was 0.968 ± 0.079, the surviving fraction ([1]; 100 nM) was 1 ± 0.14 and the surviving fraction ([1]; 500 nM) was 1.05 ± 0.067. For the same test system, the surviving fraction ([1]; 1000 nM) was 0.995 ± 0.019.

SCC90 HEADNECK showed a surviving fraction (DOXORUBICIN; 0.5 nM) of 0.967 ± 0.034, a surviving fraction (DOXORUBICIN; 1 nM) of 0.956 ± 0.046 and a surviving fraction (DOXORUBICIN; 5 nM) of 0.954 ± 0.029. For the same test system, the surviving fraction (DOXORUBICIN; 10 nM) was 1.06 ± 0.1, the surviving fraction (DOXORUBICIN; 50 nM) was 0.711 ± 0.12 and the surviving fraction (DOXORUBICIN; 100 nM) was 0.571 ± 0.072. For the same test system, the surviving fraction (DOXORUBICIN; 500 nM) was 0.11 ± 0.033, the surviving fraction (DOXORUBICIN; 1000 nM) was 0.0687 ± 0.0095 and the surviving fraction ([1]; 0.5 nM) was 0.884 ± 0.044. It also gave a surviving fraction ([1]; 1 nM) of 0.96 ± 0.036, a surviving fraction ([1]; 5 nM) of 0.839 ± 0.18 and a surviving fraction ([1]; 10 nM) of 0.951 ± 0.036. For the same test system, the surviving fraction ([1]; 50 nM) was 0.88 ± 0.049, the surviving fraction ([1]; 100 nM) was 0.961 ± 0.17 and the surviving fraction ([1]; 500 nM) was 0.883 ± 0.17. For the same test system, the surviving fraction ([1]; 1000 nM) was 0.814 ± 0.035.
